Measured values published in ChEMBL document CHEMBL1255342, “Efficacy of benzoxazinorifamycins in a mouse model of Chlamydia pneumoniae lung infection” (2008).
Converted amounts (≈) assume the structure as drawn. “And” between values parts separate entries of the source, which are not always exact repeats. Equal values may be shown once.

Columns and labels:
Assay type in all cases: functional
Chlamydia pneumoniae [1] = test: Antimicrobial activity against Chlamydia pneumoniae AR39 infected in C57BL/6J mouse at 3 mg/kg, ip assessed as bacterial load measured on day 10 post infection relative to control; conditions: route intraperitoneal
Chlamydia pneumoniae [2] = test: Antimicrobial activity against Chlamydia pneumoniae TW-183 after 72 hrs by twofold dilution method; conditions: TW-183, 72 h
Chlamydia pneumoniae [3] = test: Antimicrobial activity against Chlamydia pneumoniae AR39 infected in C57BL/6J mouse at 1 mg/kg, ip assessed as bacterial load measured on day 10 post infection relative to control; conditions: route intraperitoneal

SMILES | Efficacy (Chlamydia pneumoniae [1]) [%] | MIC (Chlamydia pneumoniae [2]) [ng/mL] | Efficacy (Chlamydia pneumoniae [3]) [%] | Efficacy (Chlamydia pneumoniae [1]; 3 mg/kg) | Efficacy (Chlamydia pneumoniae [3]; 1 mg/kg)
CO[C@H]1/C=C/O[C@@]2(C)Oc3c(C)c(O)c4c(=O)c(c5oc6cc(N7CC(N(C)C)C7)cc(O)c6nc-5c4c3C2=O)NC(=O)/C(C)=C\C=C\[C@H](C)[C@H](O)[C@@H](C)[C@@H](O)[C@@H](C)[C@H](OC(C)=O)[C@@H]1C | 0.025 | 0.064 (≈ 0.0712 nM) | 0.06 |  | 
CO[C@H]1/C=C/O[C@@]2(C)Oc3c(C)c(O)c4c(=O)c(c5oc6cc(N7CC8CCC(C7)N8C)cc(O)c6nc-5c4c3C2=O)NC(=O)/C(C)=C\C=C\[C@H](C)[C@H](O)[C@@H](C)[C@@H](O)[C@@H](C)[C@H](OC(C)=O)[C@@H]1C | <0.025 | 0.125 (≈ 0.135 nM) | 0.14 |  | 
CO[C@H]1/C=C/O[C@@]2(C)Oc3c(C)c(O)c4c(=O)c(c5oc6cc(N7CCN(CC8CC8)CC7)cc(O)c6nc-5c4c3C2=O)NC(=O)/C(C)=C\C=C\[C@H](C)[C@H](O)[C@@H](C)[C@@H](O)[C@@H](C)[C@H](O)[C@@H]1C | 15.51 | 0.064 (≈ 0.0713 nM) | 1.34 |  | 
CO[C@H]1/C=C/O[C@@]2(C)Oc3c(C)c(O)c4c(=O)c(c5oc6cc(N7CCC(C)(N(C)C)CC7)cc(O)c6nc-5c4c3C2=O)NC(=O)/C(C)=C\C=C\[C@H](C)[C@H](O)[C@@H](C)[C@@H](O)[C@@H](C)[C@H](OC(C)=O)[C@@H]1C | 0.56 |  | 0.49 |  | 
CO[C@H]1/C=C/O[C@@]2(C)Oc3c(C)c(O)c4c(=O)c(c5oc6cc(N7CCC(C)(C)N(C)C(C)(C)C7)cc(O)c6nc-5c4c3C2=O)NC(=O)/C(C)=C\C=C\[C@H](C)[C@H](O)[C@@H](C)[C@@H](O)[C@@H](C)[C@H](OC(C)=O)[C@@H]1C | <0.025 | 0.064 (≈ 0.066 nM) | 0.03 |  | 
CO[C@H]1/C=C/O[C@@]2(C)Oc3c(C)c(O)c4c(=O)c(c5oc6cc(N7CCN(C)CC7)cc(O)c6nc-5c4c3C2=O)NC(=O)/C(C)=C\C=C\[C@H](C)[C@H](O)[C@@H](C)[C@@H](O)[C@@H](C)[C@H](O)[C@@H]1C |  | 0.125 (≈ 0.146 nM) |  | 0.44% and 0.18% | 1.26% and 6.04%
CO[C@H]1/C=C/O[C@@]2(C)Oc3c(C)c(O)c4c(=O)c(c5oc6cc(N7CCN(CC(C)C)CC7)cc(O)c6nc-5c4c3C2=O)NC(=O)/C(C)=C\C=C\[C@H](C)[C@H](O)[C@@H](C)[C@@H](O)[C@@H](C)[C@H](OC(C)=O)[C@@H]1C [RIFALAZIL] | 1.14 | 0.25 (≈ 0.266 nM) | 0.24 |  | 
